IC50, Dmax and DC50 data for nine molecules are collected here from US20260000676A1, “CHROMAN DERIVATIVES AS ESTROGEN RECEPTOR DEGRADERS” (THE REGENTS OF THE UNIVERSITY OF MICHIGAN, priority 2022, published 2026).

One test addresses ERα_LBD(GST) (Homo sapiens (Human), UniProt P03372). Briefly: LanthaScreen TR-FRET ERα competitive binding assay. Particulars: read-out: ERα HTRF IC50. On the procedure:
• 1. ERα_LBD(GST) protein: 4 nM • 2. Tb Anti-GST: 2 nM • 3. Fluormone ES2 Green tracer: 3 nM • 4. Incubation time: 60 min • 5. DMSO: 1% • 6. Assay buffer: Adding 1M DTT to Nuclear receptor Buffer K for final 5 mM DTT. • 7. ZPE: 1% DMSO • 8. HPE: 1 μM ARV_471 • 9. LanthaScreen® TR-FRET ERα Competitive Binding Assay (ThermoFisher, #A15887)
• 1) Cherry pick 2 μL 10 mM compound stock to column 1 of a 384 intermediate plate • 2) Add 18 μL DMSO to column 1 to dilute compound to 1 mM. • 3) Transfer 10 μL 1 mM compound to column 1 of a LDV plate. • 2) Add 6 μl DMSO to column 2-10 of the LDV plate. • 3) Compounds undergo 3-fold serial dilution (3 μL+6 μL) in DMSO. • 4) Transfer 120 nL compound solution to assay plate. • ZPE: 120 nL 100% DMSO
Prepare complete nuclear receptor buffer K by adding 1 M DTT to nuclear receptor buffer K for a final concentration of 5 mM DTT. Complete nuclear receptor buffer K must be prepared fresh daily. Prepare 2× protein solution using complete nuclear receptor buffer K containing 8 nM ERα_LBD(GST) and 4 nM Tb Anti-GST. Then, prepare 2× Fluormone ES2 Green tracer (6 nM) using complete nuclear receptor buffer K. Add 6 μL 2× Fluormone ES2 green tracer into a compound plate (PerkinElmer 6008289) by dragonfly with one-tips-addition. Subsequently, add 6 μL 2× protein solution into the plate. Briefly and gently mix the 384-well plate on a plate shaker and incubate at room temperature protected from light for 60 min. The plate is sealed with a cover to minimize evaporation. Read the plate at wavelengths of 520 nm and 495 nm. Calculate the TR-FRET ratio by dividing the emission signal at 520 nm by the emission signal at 495 nm. Generate a binding curve by plotting the emission ratio vs. the log [ligand]. To determine the IC50 value, fit the data using XL-fit for a sigmoidal dose-response.
(TR-FRET usually uses a lanthanide donor and a delayed reading to cut background.)

For test [1], the target named is T1, ER (Homo sapiens (Human), UniProt P03372). Briefly: In-cell western (ICW) ER degradation assay in T47D cells. The class given is cell-based. Particulars: 16 hrs; for Dmax: maximal ER degradation; for DC50: ER degradation.
T1 sequence (P03372 whole entry): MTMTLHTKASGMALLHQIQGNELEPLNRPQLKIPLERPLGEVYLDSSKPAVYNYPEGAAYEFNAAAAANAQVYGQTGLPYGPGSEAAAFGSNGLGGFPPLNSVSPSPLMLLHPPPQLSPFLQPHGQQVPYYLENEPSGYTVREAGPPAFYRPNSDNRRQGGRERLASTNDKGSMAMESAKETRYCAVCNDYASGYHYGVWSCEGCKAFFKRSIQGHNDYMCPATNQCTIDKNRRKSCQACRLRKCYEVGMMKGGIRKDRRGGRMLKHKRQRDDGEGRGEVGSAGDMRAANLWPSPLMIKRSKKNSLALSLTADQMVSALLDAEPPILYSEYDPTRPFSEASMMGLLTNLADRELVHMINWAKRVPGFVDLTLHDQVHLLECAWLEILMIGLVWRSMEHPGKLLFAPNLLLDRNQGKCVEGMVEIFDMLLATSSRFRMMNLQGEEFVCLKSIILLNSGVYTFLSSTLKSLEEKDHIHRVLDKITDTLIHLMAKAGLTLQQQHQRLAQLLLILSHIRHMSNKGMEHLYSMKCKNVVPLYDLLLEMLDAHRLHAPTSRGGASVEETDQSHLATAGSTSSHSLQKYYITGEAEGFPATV
In test [2] the target is T1, ER. Put plainly: In-cell western (ICW) ER degradation assay in MCF-7 cells. Particulars: MCF7, 16 hrs; for Dmax: MCF7, maximal ER degradation; for DC50: ER degradation. Format: cell-based.
A further test has as its target CRBN/DDB1 (Homo sapiens (Human), UniProt Q96SW2). Briefly: HTRF binding assay to CRBN/DDB1. Particulars: read-out: CRBN HTRF IC50. On the procedure:
The binding potency was determined using HTRF assay technology (Perkin Elmer). Compounds were serially diluted in DMSO and 0.2 μL volume was transferred to white 384-well plate.

Sequence of ERα_LBD(GST) (P03372 311-547): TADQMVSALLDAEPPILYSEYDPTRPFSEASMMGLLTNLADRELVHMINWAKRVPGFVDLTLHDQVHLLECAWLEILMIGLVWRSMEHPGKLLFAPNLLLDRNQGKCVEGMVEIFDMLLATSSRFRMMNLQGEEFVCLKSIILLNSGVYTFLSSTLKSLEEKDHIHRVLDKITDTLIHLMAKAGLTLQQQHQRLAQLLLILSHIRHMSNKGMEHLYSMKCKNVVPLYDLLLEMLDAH
Sequence of CRBN/DDB1 (Q96SW2 whole entry): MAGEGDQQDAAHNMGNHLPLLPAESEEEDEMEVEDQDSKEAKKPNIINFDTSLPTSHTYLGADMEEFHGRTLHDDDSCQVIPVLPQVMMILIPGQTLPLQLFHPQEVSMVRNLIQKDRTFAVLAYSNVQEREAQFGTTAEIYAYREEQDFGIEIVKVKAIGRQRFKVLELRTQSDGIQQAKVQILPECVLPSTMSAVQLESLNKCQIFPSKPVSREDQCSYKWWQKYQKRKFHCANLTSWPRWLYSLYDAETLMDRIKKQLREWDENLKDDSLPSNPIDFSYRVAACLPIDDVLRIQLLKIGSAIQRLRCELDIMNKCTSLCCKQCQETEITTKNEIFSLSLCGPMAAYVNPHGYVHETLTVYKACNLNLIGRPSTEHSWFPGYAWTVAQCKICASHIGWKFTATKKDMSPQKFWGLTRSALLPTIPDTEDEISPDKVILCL
Sequence of CRBN/DDB1 (Q16531 whole entry partner): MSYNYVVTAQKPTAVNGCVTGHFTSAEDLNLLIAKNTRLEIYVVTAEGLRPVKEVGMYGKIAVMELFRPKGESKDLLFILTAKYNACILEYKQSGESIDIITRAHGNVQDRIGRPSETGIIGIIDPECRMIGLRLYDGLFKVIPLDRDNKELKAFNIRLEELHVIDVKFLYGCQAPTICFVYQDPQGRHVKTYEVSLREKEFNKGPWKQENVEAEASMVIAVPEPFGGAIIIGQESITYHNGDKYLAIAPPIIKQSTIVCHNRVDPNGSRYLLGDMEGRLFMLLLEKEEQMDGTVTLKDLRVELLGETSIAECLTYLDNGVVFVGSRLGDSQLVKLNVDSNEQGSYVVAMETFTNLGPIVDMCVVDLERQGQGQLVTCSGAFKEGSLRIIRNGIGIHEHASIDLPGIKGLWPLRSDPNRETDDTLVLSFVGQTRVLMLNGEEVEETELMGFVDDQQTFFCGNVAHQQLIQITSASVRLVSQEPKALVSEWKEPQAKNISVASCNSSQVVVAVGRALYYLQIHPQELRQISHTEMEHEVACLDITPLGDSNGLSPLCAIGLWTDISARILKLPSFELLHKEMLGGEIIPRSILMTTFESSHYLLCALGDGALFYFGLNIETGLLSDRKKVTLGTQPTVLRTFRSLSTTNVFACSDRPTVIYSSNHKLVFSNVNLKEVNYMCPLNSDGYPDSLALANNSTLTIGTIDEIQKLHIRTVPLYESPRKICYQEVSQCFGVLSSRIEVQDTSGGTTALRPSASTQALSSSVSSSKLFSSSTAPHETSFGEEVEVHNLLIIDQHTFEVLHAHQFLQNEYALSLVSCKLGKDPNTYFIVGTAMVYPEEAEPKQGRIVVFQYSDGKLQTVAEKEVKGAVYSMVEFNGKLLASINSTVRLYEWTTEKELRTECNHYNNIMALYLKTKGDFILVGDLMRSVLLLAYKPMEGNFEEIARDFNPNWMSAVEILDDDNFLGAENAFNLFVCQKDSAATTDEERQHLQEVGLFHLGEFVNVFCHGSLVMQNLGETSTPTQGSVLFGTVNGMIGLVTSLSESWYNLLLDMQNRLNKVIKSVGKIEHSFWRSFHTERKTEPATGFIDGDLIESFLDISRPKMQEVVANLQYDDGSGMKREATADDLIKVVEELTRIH

One may read the IC50 as the concentration at which inhibition is half-maximal. Usually Dmax stands for the largest share of the target that was removed. High values mean a fuller loss of target, low ones a partial loss of target. For the molecule `COc1cc(N2CCC(CN3CCN4c5ccc6c(c5OC[C@@H]4C3)CN([C@@H]3CCC(=O)NC3=O)C6=O)CC2)ccc1[C@H]1c2ccc(O)cc2OC[C@H]1c1ccccc1` (single isomer, unassigned) [Compound A121], the concentration for half-maximal inhibition (IC50) at ERα_LBD(GST) is below 5 nM. Besides, the Dmax at ER [1] and on ER [2] was at least 75% in each case.

By DC50 is commonly meant the concentration at which degradation of the target reaches its halfway point. Take `COc1cc(N2CCC3(CC2)CC(CN2CCN4c5ccc6c(c5OC[C@@H]4C2)CN([C@@H]2CCC(=O)NC2=O)C6=O)C3)c(F)cc1[C@@H]1c2ccc(O)cc2OC[C@@H]1c1ccccc1` (single isomer, unassigned) [Compound A125]: the IC50 on ERα_LBD(GST) is below 5 nM. The 50% degradation concentration (DC50) at ER [1] and on ER [2] was below 1 nM each time. Besides, the Dmax on ER [1] and at ER [2] was at least 75% throughout.

On to `O=C1CC[C@@H](N2Cc3cc4c(cc3C2=O)OCC42CCN(CC3CCC4(CC3)CN(c3ccc([C@H]5c6ccc(O)cc6OC[C@H]5c5ccccc5)cc3)C4)CC2)C(=O)N1` [Compound A153, (R)-3-(1′-((2-(4-((3R,4S)-7-hydroxy-3-phenylchroman-4-yl)phenyl)-2-azaspiro[3.5]nonan-7-yl)methyl)-7-oxo-5,7-dihydro-2H,6H-spiro[furo[2,3-f]isoindole-3,4′-piperidin]-6-yl)piperidine-2,6-dione], for which the concentration for half-maximal inhibition (IC50) at ERα_LBD(GST) was below 5 nM. For the same molecule, on ER [1], the half-maximal degradation concentration (DC50) was below 1 nM and the maximal degradation (Dmax) was at least 75%. In addition, at ER [2], the 50% degradation concentration (DC50) is below 1 nM and the Dmax was in the range of 50 to 75%.

Consider `O=C1CCC(N2Cc3c(ccc4c3OC[C@H]3CN(CC5CCN(c6ccc([C@@H]7c8ccc(O)cc8OC[C@@H]7c7ccccc7)cc6F)CC5)CCN43)C2=O)C(=O)N1` (single isomer, unassigned) [Compound A9, 3-((R)-7-((1-(2-fluoro-4-((3S,4R)-7-hydroxy-3-phenylchroman-4-yl)phenyl)piperidin-4-yl)methyl)-1-oxo-1,3,5,5a,6,7,8,9-octahydro-2H-pyrazino[1′,2′:4,5][1,4]oxazino[2,3-e]isoindol-2-yl)piperidine-2,6-dione], for which the IC50 on ERα_LBD(GST) was below 5 nM. For the same molecule, the Dmax at ER [2] is 50 to 75%.

Turning to `O=C1CCC(N2Cc3cc4c(cc3C2=O)OC[C@@H]2CN(CC3CC5(CCN(c6ccc([C@H]7c8ccc(O)cc8OC[C@H]7c7ccccc7)cc6)CC5)C3)CCN42)C(=O)N1` (single isomer, unassigned) [Compound A27], at ERα_LBD(GST), the IC50 was below 5 nM. Besides, the Dmax at ER [2] was 50 to 75%.

Consider `O=C1CCC(N2Cc3c(ccc4c3OC[C@H]3CN(CC5CCN(c6ccc([C@@H]7c8ccc(O)cc8OC[C@@H]7c7ccccc7)cc6)CC5)CCN43)C2=O)C(=O)N1` (single isomer, unassigned) [Compound A8, 3-((R)-7-((1-(4-((3S,4R)-7-hydroxy-3-phenylchroman-4-yl)phenyl)piperidin-4-yl)methyl)-1-oxo-1,3,5,5a,6,7,8,9-octahydro-2H-pyrazino[1′,2′:4,5][1,4]oxazino[2,3-e]isoindol-2-yl)piperidine-2,6-dione], for which the 50% inhibitory concentration (IC50) at ERα_LBD(GST) was below 5 nM. This molecule registered a maximal degradation (Dmax) on ER [2] of 50 to 75%.

On to `O=C1CCC(N2Cc3c(ccc4c3OC[C@@H]3CN(CC5CC6(CCN(c7ccc([C@H]8c9ccc(O)cc9OC[C@H]8c8ccccc8)cc7)CC6)C5)CCN43)C2=O)C(=O)N1` (single isomer, unassigned) [Compound A21], for which the half-maximal inhibitory concentration (IC50) at ERα_LBD(GST) is below 5 nM.

Turning to `O=C1CCC(NC(=O)c2ccc(N3CCN(CC4CCN(c5ccc([C@H]6c7ccc(O)cc7OC[C@H]6c6ccccc6)cc5F)CC4)CC3)cn2)C(=O)N1` (single isomer, unassigned) [Compound A100], the 50% inhibitory concentration (IC50) on CRBN/DDB1 was above 5000 nM. On ER [1], this molecule had a DC50 of 1 to 10 nM and a maximal degradation (Dmax) of 50 to 75%. At ER [2], this molecule showed a DC50 of 1 to 10 nM and a Dmax of 50 to 75%.

Take `O=C1CCC(N2Cc3cc4c(cc3C2=O)OC[C@@H]2CN(CC3CCN(c5ccc([C@H]6c7ccc(O)cc7OC[C@H]6c6ccccc6)cn5)CC3)CCN42)C(=O)N1` (single isomer, unassigned) [Compound A61]: on CRBN/DDB1, the IC50 is 50 to 500 nM. Moreover, at ER [1], the DC50 lay in the range of 1 to 10 nM and the Dmax was in the range of 50 to 75%. On ER [2], this molecule registered a DC50 of 1 to 10 nM and a Dmax of 25 to 50%.
